Test results from ChEMBL document CHEMBL1201862, “PubChem BioAssay data set” (2004).
Where “and” joins values, the source holds several entries; their conditions need not be identical. Equal entries are not always repeated.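 The compound was tested at five concentrations on cells cultured in 96-well plates, with a 48-hour exposure period. The concentration for 50% growth inhibition is given as GI50.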 Calls of active or inactive are those of the source. No stated cut-off is given here; in the data, active = GI50 up to about 1.1 µM and inactive = higher. Where a SMILES comes first, the peptide text is derived from it. [ ]: non-standard residue; d: D form. The star is where a group is joined. NMeF = CN[C@@H](Cc1ccccc1)C(=O)O; NMeV = CN[C@H](C(=O)O)C(C)C; Boc = CC(C)(C)OC(=O)*; OBn = c1ccc(CO*)cc1

Columns and labels:
Test in all cases: NCI-60 cell line screen, 48 h
RXF 393 = system: RXF 393
T47D = system: T47D
SK-OV-3 = system: SK-OV-3
IGROV-1 = system: IGROV-1
COLO 205 = system: COLO 205
OVCAR-5 = system: OVCAR-5
DU-145 = system: DU-145
OVCAR-3 = system: OVCAR-3
Malme-3M = system: Malme-3M
OVCAR-8 = system: OVCAR-8
Hs-578T = system: Hs-578T
MDA-MB-231 = system: MDA-MB-231
CCRF-CEM = system: CCRF-CEM
KM12 = system: KM12
SNB-75 = system: SNB-75
LOX IMVI = system: LOX IMVI
MDA-MB-435 = system: MDA-MB-435
TK-10 = system: TK-10
HL-60 = system: HL-60
NCI-H226 = system: NCI-H226

SMILES | GI50 (RXF 393) | GI50 (T47D) | GI50 (SK-OV-3) | GI50 (IGROV-1) | GI50 (COLO 205) | GI50 (OVCAR-5) | GI50 (DU-145) | GI50 (OVCAR-3) | GI50 (Malme-3M) | GI50 (OVCAR-8) | GI50 (Hs-578T) | GI50 (MDA-MB-231) | GI50 (CCRF-CEM) | GI50 (KM12) | GI50 (SNB-75) | GI50 (LOX IMVI) | GI50 (MDA-MB-435) | GI50 (TK-10) | GI50 (HL-60) | GI50 (NCI-H226)
O=C(O)c1nnsc1COCc1ccccc1 | > 100 µM (inactive) | > 100 µM (inactive) | > 100 µM (inactive) | > 100 µM (inactive) | > 100 µM (inactive) | > 100 µM (inactive) | > 100 µM (inactive) | > 100 µM (inactive) | > 100 µM (inactive) | > 100 µM (inactive) | > 100 µM (inactive) | > 100 µM (inactive) | > 100 µM (inactive) | > 100 µM (inactive) | > 100 µM (inactive) | > 100 µM (inactive) | > 100 µM (inactive) | > 100 µM (inactive) |  | 
CCC(C)C1=C(O)[N+]2([O-])Oc3ccc(-c4c(O)c(O)c(-c5ccc(OC(C)=O)cc5)c(OC(C)=O)c4OC(C)=O)cc3OC2(C(C)CC)C(=O)N1O (centres undefined) | > 50 µM (inactive) | 42.7 µM (inactive) | > 50 µM (inactive) | 25.6 µM (inactive) and 17.1 µM (inactive) | > 50 µM (inactive) | > 50 µM (inactive) | > 50 µM (inactive) | > 50 µM (inactive) | 34.6 µM (inactive) and 45.2 µM (inactive) | > 50 µM (inactive) | > 50 µM (inactive) | > 50 µM (inactive) | 19.3 µM (inactive) and 19.2 µM (inactive) | > 50 µM (inactive) |  | 38.3 µM (inactive) and 37.2 µM (inactive) | 26.1 µM (inactive) and 22.9 µM (inactive) | > 50 µM (inactive) | 24 µM (inactive) and 27.4 µM (inactive) | 
CC(C)=CC(=O)C[C@H]1C(=O)O[C@@H]2C[C@H]3C(C)=CC(=O)[C@@H](O)[C@]3(C)[C@H]3[C@@]4(O)OC[C@]32[C@@H]1[C@@H](C)[C@H]4O |  | < 0.0111 µM (active) | 0.187 µM (active) | < 0.01 µM (active) | 0.125 µM (active) | 0.0711 µM (active) | 0.0177 µM (active) | < 0.0146 µM (active) | < 0.01 µM (active) | < 0.01 µM (active) | 0.029 µM (active) | 0.0454 µM (active) | < 0.01 µM (active) | < 0.0169 µM (active) | 0.0148 µM (active) | < 0.01 µM (active) | 0.0222 µM (active) | 0.019 µM (active) | < 0.01 µM (active) | < 0.01 µM (active)
COc1ccc(-c2coc3c4c(ccc3c2=O)OCO4)cc1OC |  | > 100 µM (inactive) | 24.4 µM (inactive) | 44.4 µM (inactive) | > 100 µM (inactive) | > 100 µM (inactive) | > 100 µM (inactive) | 23.8 µM (inactive) |  | 38 µM (inactive) | 26.4 µM (inactive) | 45.4 µM (inactive) | > 100 µM (inactive) | 83.6 µM (inactive) | 38.2 µM (inactive) | 98.2 µM (inactive) | 5.87 µM (inactive) | 63 µM (inactive) | 14.3 µM (inactive) | 76.7 µM (inactive)
C[N+]1(CCC(=O)c2ccco2)CC2CCC(CC2)C1 (centres undefined) | > 100 µM (inactive) | > 100 µM (inactive) |  | > 100 µM (inactive) | > 100 µM (inactive) | > 100 µM (inactive) | > 100 µM (inactive) | > 100 µM (inactive) | > 100 µM (inactive) | > 100 µM (inactive) | > 100 µM (inactive) | > 100 µM (inactive) |  | > 100 µM (inactive) | > 100 µM (inactive) | > 100 µM (inactive) | > 100 µM (inactive) | > 100 µM (inactive) |  | > 100 µM (inactive)
Cc1cccc(C(C)C)c1NC(=O)C(=O)CC(=O)c1sc(Nc2ccccc2Cl)nc1C | 40.6 µM (inactive) | 35.8 µM (inactive) | 20.7 µM (inactive) | 46.3 µM (inactive) | 29.9 µM (inactive) | > 100 µM (inactive) | 71.4 µM (inactive) | 32 µM (inactive) | > 100 µM (inactive) |  | 21.9 µM (inactive) | 41 µM (inactive) | 30.3 µM (inactive) | 23.1 µM (inactive) | 21.7 µM (inactive) | 31.8 µM (inactive) | 7.26 µM (inactive) | 90.2 µM (inactive) | 16.1 µM (inactive) | 
N#Cc1ccc(C(O)C(F)(F)c2nc3ccccc3o2)cc1 (centres undefined) | > 100 µM (inactive) | 37.2 µM (inactive) | > 100 µM (inactive) | 95.5 µM (inactive) | > 100 µM (inactive) |  | 35.7 µM (inactive) |  |  | 98.6 µM (inactive) | > 100 µM (inactive) | 18.9 µM (inactive) | 45.5 µM (inactive) | 96.2 µM (inactive) | > 100 µM (inactive) | 42.9 µM (inactive) | 44.8 µM (inactive) | > 100 µM (inactive) | 43.6 µM (inactive) | 32.9 µM (inactive)
COC(=O)c1ccc(Oc2nc3ccccc3nc2-c2cccs2)cc1 | 4.79 µM (inactive) | 60.8 µM (inactive) | 35.5 µM (inactive) | 39.3 µM (inactive) | > 100 µM (inactive) | > 100 µM (inactive) | > 100 µM (inactive) | > 100 µM (inactive) | > 100 µM (inactive) | 51.8 µM (inactive) | 19.5 µM (inactive) | 21.3 µM (inactive) | > 100 µM (inactive) | > 100 µM (inactive) | 7.83 µM (inactive) | > 100 µM (inactive) | > 100 µM (inactive) | 26.7 µM (inactive) | > 100 µM (inactive) | 
COC(=O)c1c(C(=O)OC)c2c3ccccc3n(C)c2c2c1c1ccccc1n2C |  | > 100 µM (inactive) | 50.2 µM (inactive) | 16.9 µM (inactive) | > 100 µM (inactive) | 61.1 µM (inactive) | > 100 µM (inactive) |  | 89.9 µM (inactive) | > 100 µM (inactive) | > 100 µM (inactive) | 17.1 µM (inactive) | > 100 µM (inactive) | > 100 µM (inactive) | 25.8 µM (inactive) | > 100 µM (inactive) | > 100 µM (inactive) | > 100 µM (inactive) |  | > 100 µM (inactive)
O=C(NN1C(=O)C(Cl)C1c1ccc(Cl)cc1)c1c(Cl)c(Cl)c(Cl)c(Cl)c1-c1nc2ccccc2[nH]1 (centres undefined) | 2.23 µM (inactive) | < 0.01 µM (active) | 42.7 µM (inactive) | 3.61 µM (inactive) | 18.3 µM (inactive) | 37.2 µM (inactive) | 16.4 µM (inactive) | 27.8 µM (inactive) | 21.1 µM (inactive) | 17.8 µM (inactive) | 41.5 µM (inactive) |  | 8.39 µM (inactive) | 31.4 µM (inactive) | 19.2 µM (inactive) | 16.5 µM (inactive) | 20.1 µM (inactive) |  | 25.4 µM (inactive) | 22.1 µM (inactive)
COC(=O)CC(C#N)(OP1(=O)OC(c2ccccc2)C(C)N1C)c1ccccc1 (centres undefined) | 20.6 µM (inactive) | 28.1 µM (inactive) | 40.5 µM (inactive) | 34.4 µM (inactive) | 34.5 µM (inactive) | 27.4 µM (inactive) | 32.4 µM (inactive) | 18.8 µM (inactive) | 41.8 µM (inactive) | 22.8 µM (inactive) | 30.3 µM (inactive) | 42.4 µM (inactive) | 11.5 µM (inactive) | 20.6 µM (inactive) | 43.4 µM (inactive) | 21 µM (inactive) | 21.4 µM (inactive) | 29 µM (inactive) | 23.8 µM (inactive) | 
COc1cccc(-c2nc(N)c(C#N)c3c2CCS(=O)(=O)c2ccc(C)cc2-3)c1 |  | 43.2 µM (inactive) | 46.7 µM (inactive) | 15.2 µM (inactive) | 8.05 µM (inactive) | > 100 µM (inactive) | 37.6 µM (inactive) | 21 µM (inactive) | 18.2 µM (inactive) | 26.1 µM (inactive) | 13.3 µM (inactive) | 21.8 µM (inactive) | 14.6 µM (inactive) | 7.85 µM (inactive) | 10.4 µM (inactive) | 31.4 µM (inactive) | 4.85 µM (inactive) | > 68.9 µM (inactive) | 5.08 µM (inactive) | > 51.5 µM (inactive)
COC(=O)NCCc1n[nH]c2c1C(=O)C=C(Nc1ccccc1OC)C2=O | 94 µM (inactive) | 30.1 µM (inactive) | > 100 µM (inactive) | 26.5 µM (inactive) | 24.3 µM (inactive) | 61.4 µM (inactive) | 42.4 µM (inactive) | 7.64 µM (inactive) | 14.2 µM (inactive) | 13.6 µM (inactive) | 28.4 µM (inactive) | 27 µM (inactive) | 30.1 µM (inactive) | 24.8 µM (inactive) | 28.2 µM (inactive) | 23 µM (inactive) | 17.1 µM (inactive) | 53.7 µM (inactive) | 21.8 µM (inactive) | 
CC(C)[C@@H](C(=O)N1CCC[C@H]1C(=O)OCc1ccccc1)N(C)C(=O)[C@H](C(C)C)N(C)C(=O)[C@H](Cc1ccccc1)N(C)C(=O)[C@H](NC(=O)OC(C)(C)C)C(C)C (Boc-[dV][NMeF][NMeV][NMeV]P-OBn) | > 50 µM (inactive) | > 50 µM (inactive) | > 50 µM (inactive) | > 50 µM (inactive) | > 50 µM (inactive) | > 50 µM (inactive) | > 50 µM (inactive) | > 50 µM (inactive) |  |  | > 50 µM (inactive) | > 50 µM (inactive) | > 50 µM (inactive) | > 50 µM (inactive) | > 50 µM (inactive) | > 50 µM (inactive) | > 50 µM (inactive) | > 50 µM (inactive) | > 50 µM (inactive) | > 50 µM (inactive)
